Patent US20240366543A1, “METHODS OF TREATING METHYLMALONIC ACIDEMIA AND PROPIONIC ACIDEMIA” (HemoShear Therapeutics, Inc., priority 2021, published 2024)
≈ marks a conversion by molar mass, not a printed value. Where “and” joins values, the source holds several entries; their conditions need not be identical. Equal values may be shown once.

Key:
[1] = tested on: Hepatocytes from propionic academia patients; assay: Ureagenesis (15N-urea) in HemoShear REVEAL-Tx technology (Example 3); type: cell-based, human; conditions: PA primary hepatocytes, treated day 5 to day 7, 15N-NH4Cl 4 hrs
Excerpt: (§1) For this experiment, we deployed the HemoShear REVEAL-Tx™ technology, which is based on the cone-and-plate configuration or viscometer combined with a porous polycarbonate membrane that mimics a filtering layer of sinusoidal endothelial cells (see: Dash A, Deering TG, Marukian S, et al. Physiological Hemodynamics and Transport Restore Insulin and Glucagon Responses in a Normal Glucose Milieu in Hepatocytes In Vitro. 73rd Scientific Sessions of the American Diabetes Association, 2013 (Chicago), and U.S. Pat. Nos. 7,811,782 and 9,500,642, and 9,617,521, each of which is incorporated by reference herein in its entirety).
Hepatocytes from propionic academia patients are plated in a collagen gel sandwich on one side of the membrane replicating the polarized orientation found in vivo within the hepatic sinusoids. On the other side, medium is continuously perfused and surface shear rates are applied across a range of physiological values derived from sinusoidal flow rates in vivo while also controlling transport in the system with in- and out-flow tubing to each compartment. […]
Hepatocytes are treated with increasing doses of Compound 5 (0, 0.1, 0.3, 1, 3, 10, 30, 100 μM) in the HemoShear REVEAL-Tx™ technology from day 5 to day 7. […] After 4 hrs, cells are washed 2× in saline solution and lysed, scraped and harvested using 80% methanol. ^15N-urea is measured by GCMSMS.

[2] = tested on: primary hepatocyte model of isovaleric acidemia; assay: Isovaleryl-CoA from 13C-leucine in primary hepatocyte model of isovaleric acidemia (Example 4); type: cell-based; conditions: primary hepatocytes with/without isovaleryl-CoA dehydrogenase inhibitor
Experimental: Primary hepatocytes are treated with increasing doses of Compound 5 (0, 0.1, 0.3, 1, 3, 10, 30, 100 μM) with and without an inhibitor for isovaleryl-CoA dehydrogenase for 30 min. After 30 min the cells are challenged with 13C-leucine. At the end of the challenge period, media is removed and the cells are lysed with 70% MeCN and 0.1% TFA containing 100 μM of ethymalonyl-CoA as an internal standard and harvested. Cell lysates are processed for HTMS/MS analysis.

[3] = tested on: primary hepatocytes (pHeps) from PA donors; assay: HemoShear REVEAL-Tx Technology, PA pHeps; type: cell-based, human
Excerpt: as §1
Hepatocytes from propionic academia patients are plated in a collagen gel sandwich on one side of the membrane replicating the polarized orientation found in vivo within the hepatic sinusoids. On the other side, medium is continuously perfused and surface shear rates are applied across a range of physiological values derived from sinusoidal flow rates in vivo while also controlling transport in the system with in- and out-flow tubing to each compartment. Effectively, this creates a flow-based culture system where hepatocytes are shielded from direct effects of flow, as they would be in vivo, but perfusion, nutrient gradients, and interstitial fluid movement are maintained.
Biomarker levels are normalized to cell counts and cell volume to account for differences in the number of cells plated for each donor. […] This is most likely due to the presence of ^12C-succinyl-CoA in the sample, which has the same mass. In experiments described below, M-CoA is labeled with ^13C to determine a more accurate percent reduction. Compound 5 reduced the C3 concentration and the C3/C2 ratio with an EC50 similar to that for the reduction in P-CoA (FIGS. 3C, 3D).

Normal pHeps = assay: HemoShear Technology, normal pHeps; type: cell-based, human; conditions: exposed 6 days
Excerpt: as §1, with “entirety). […]” for “entirety).”
In PA and MMA pHeps, where P-CoA and M-CoA levels are very high, there is a dramatic reduction in P-CoA and M-CoA pools with Compound 5 treatment (Table 2 and Table 3). […] The effect of Compound 5 on levels of acetyl-CoA were measured in PA and MMA pHeps in acute static experiments and in PA, MMA and normal pHeps following chronic exposures in the HemoShear Technology (FIG. 5B; FIG. 6B). […]
To further evaluate the hypothesis that Compound 5 drives a redistribution of the acyl-CoA pools resulting in a reduction in P-CoA and M-CoA, the levels of CoASH were measured in the PA and MMA disease models. […]

MMA pHeps = assay: Static cell culture, MMA pHeps, low/high propiogenic media; type: cell-based, human; conditions: for Percent change (30 μM), 12C-Acetyl-CoA / Percent change (30 μM), CoASH: static culture 1.5 h
Experimental: Unlike the HemoShear Technology, this assay is carried out without constant perfusion, utilizing cell culture media that was customized to mimic plasma levels of propiogenic sources (amino acids and ketoacids) in PA and MMA patients during periods of relative metabolic stability (low propiogenic media) and acute metabolic crisis (high propiogenic media). PA and MMA pHeps, in static cell culture, were treated with Compound 5 (concentrations ranging from 0.1 μM to 100 μM) for 30 minutes in low propiogenic media, followed by either a continuation of low propiogenic media or a switch to the high propiogenic media for 1 hour. The media used during the 1-hour incubation contained propiogenic SIL amino acids and ketoacids which are metabolized into labeled P-CoA and M-CoA in the cells. The SIL amino acids and ketoacids were a mix of ^13C and MeD8 labelling, but their catabolism produced a SIL P-CoA (denoted as ^13C—P-CoA for simplicity) with the same mass, independent of the type of SIL (also true for ^13C-M-CoA).

[4] = PA pHeps, HemoShear Technology, average ± SD
[5] = PA pHeps, HemoShear Technology, exposed 6 days
[6] = static cell culture, high propiogenic media
[7] = static cell culture, low propiogenic media

SMILES: CCC(C)(C)C(=O)O [Compound 5, 2,2-dimethylbutyric acid]
- 15N-urea (ureagenesis) [1]: dose-dependent increase
- intracellular isovaleryl-CoA derived from 13C-leucine [2]: dose-dependent reduction
- EC50 value for CoASH relative to EC50 value for reduction in disease biomarkers ([3]; HemoShear Technology, PA and MMA pHeps, 6 days): 10 fold
- EC90 ([3]; Homo sapiens, Hepatocyte, exposure threshold used for comparison with clinical PK, read-out: estimated in vitro EC90): 2.32 µg/mL (≈ 20 µM)
- average reduction in the C3/C2 ratio (log 2 fold change) ([3]; PA pHeps, HemoShear Technology, 30 μM): −2.1±1.2 log 2 fold change
- % change at 30 μM, 2-Methylcitric acid (2MC) [3, 4]: −78.6±12.9%
- % change at 30 μM, 12C-Acetyl-Carnitine (C2) [3, 4]: 54 ± 80.6%
- % change at 30 μM, 12C-Propionyl-Carnitine (C3) [3, 4]: −68.9±14.6% and −69.4 ± 16.2%
- % change at 30 μM, 12C-Propionyl-CoA (P-CoA) [3, 4]: −78.8±10.9%
- Percent change at 30 μM, 12C-Acetyl-CoA [3, 5]: 54 ± 80.6%
- Percent change at 30 μM, CoASH [3, 5]: −31.3 ± 24.2%
- Percent change at 30 μM, 12C-Acetyl-CoA (Normal pHeps): 20 ± 2.9%
- Percent change at 30 μM, CoASH (Normal pHeps): −35.2 ± 3%
- % change at 30 μM, 13C-Methymalonic acid (MMA pHeps; [6]): −91 ± 4%
- % change at 30 μM, 13C-Propionyl-CoA (13C-P-CoA) (MMA pHeps; [6]): −75.9±7.3%
- % change at 30 μM, 12C-Methylmalonyl-CoA (13C-M-CoA) (MMA pHeps; [7]): −76.5±13.2%
- % change at 30 μM, 13C-Methymalonic acid (MMA pHeps; [7]): −83.2 ± 5^ %
- % change at 30 μM, 13C-Propionyl-CoA (13C-P-CoA) (MMA pHeps; [7]): −77.6±9.8%
- Percent change (30 μM), 12C-Acetyl-CoA (MMA pHeps; high propiogenic media): −14.6 ± 12.6%
- Percent change (30 μM), CoASH (MMA pHeps; high propiogenic media): −28.7 ± 7.3%
- Percent change (30 μM), 12C-Acetyl-CoA (MMA pHeps; low propiogenic media): −35.5 ± 18.1%
- Percent change (30 μM), CoASH (MMA pHeps; low propiogenic media): −47.7 ± 13.4%
